# pEC50, pKi: −log10 of the molar value.
# Legend:
# Adenosine receptor A2a = Adenosine receptor A2a (Rattus norvegicus, UniProt P30543); test: Binding affinity for adenosine A2A receptor was determined by displacement of [3H]CGS 21680 from rat striatal membranes.
# Adenosine receptor A1 [1] = molecular target: T1, Adenosine receptor A1 (Rattus norvegicus, UniProt P25099)
# T1 sequence (P25099 whole entry): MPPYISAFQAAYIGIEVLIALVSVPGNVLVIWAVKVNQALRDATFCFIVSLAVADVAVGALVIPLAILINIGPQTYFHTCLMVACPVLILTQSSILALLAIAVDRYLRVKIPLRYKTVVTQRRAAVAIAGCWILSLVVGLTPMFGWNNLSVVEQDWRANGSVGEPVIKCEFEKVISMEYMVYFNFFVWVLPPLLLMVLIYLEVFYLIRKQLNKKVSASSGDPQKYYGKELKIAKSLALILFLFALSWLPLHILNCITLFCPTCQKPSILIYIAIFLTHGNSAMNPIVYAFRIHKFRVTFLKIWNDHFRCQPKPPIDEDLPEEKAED
# Adenosine receptor A1 [2] = molecular target: T1, Adenosine receptor A1; test: Binding affinity for adenosine A1 receptor, was assessed from the ability to displace [3H]-DPCPX (without GTP) from rat cortical membranes.
# [3] = molecular target: T2, Adenosine receptor A1 (Rattus norvegicus) (UniProt P25099)
# T2 sequence (whole entry): T1 sequence (P25099 whole entry)
# Description: Binding affinity for adenosine A1 receptor, was assessed from the ability to displace [3H]DPCPX (without GTP) from rat cortical membranes, activity expressed as KH (affinity for the high-affinity state)
# [4] = molecular target: T2, Adenosine receptor A1 (Rattus norvegicus); remark: listed apart in the source
# Description: Binding affinity for adenosine A1 receptor, was assessed from the ability to displace [3H]DPCPX (without GTP) from rat cortical membranes, activity expressed as KL (affinity for the low-affinity state)
# [5] = molecular target: T2, Adenosine receptor A1 (Rattus norvegicus); remark: listed apart in the source
# Adenosine receptor A1 [6] = molecular target: T1, Adenosine receptor A1; test: Binding affinity for adenosine A1 receptor was assayed by displacement of [3H]DPCPX from rat cortical membranes.; type: cell membranes, Membrane
# Adenosine receptor A1 [7] = molecular target: T1, Adenosine receptor A1; test: Stimulation of [35S]GTP-gamma-S, binding to rat brain membranes by adenosine A1 receptor activation; type: functional, cell membranes, Membrane
# [8] = % of the receptors in the high affinity state
# [9] = molecular target: T2, Adenosine receptor A1 (Rattus norvegicus); test: Percent relative intrinsic activity with reference to CCPA
# 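Throughout, for KH: displacement of [3H]DPCPX binding from rat cortical membranes in the absence of GTP, KH giving affinity for the high-affinity receptor state.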
# 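Throughout, for KL: displacement of [3H]DPCPX from rat cortical membranes, assayed without GTP, with KL giving affinity for the low-affinity state of the receptor.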
# Adenosine receptor A2a, sequence (P30543 whole entry): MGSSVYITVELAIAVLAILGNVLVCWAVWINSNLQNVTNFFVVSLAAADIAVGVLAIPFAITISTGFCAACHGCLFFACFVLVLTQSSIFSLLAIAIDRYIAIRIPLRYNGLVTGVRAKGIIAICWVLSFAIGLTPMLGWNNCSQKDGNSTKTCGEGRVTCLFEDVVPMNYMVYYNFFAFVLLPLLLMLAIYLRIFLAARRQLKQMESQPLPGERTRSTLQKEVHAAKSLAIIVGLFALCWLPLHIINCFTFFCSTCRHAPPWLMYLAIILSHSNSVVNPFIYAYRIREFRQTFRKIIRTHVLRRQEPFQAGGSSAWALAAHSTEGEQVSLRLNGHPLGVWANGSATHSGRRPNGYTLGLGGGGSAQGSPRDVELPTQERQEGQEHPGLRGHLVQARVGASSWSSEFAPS
SMILES,pKi (Adenosine receptor A2a),pKi (Adenosine receptor A1 [1]),pKi (Adenosine receptor A1 [2]),KH [3] [nM],KL [4] [µM],RIA [5],pKi (Adenosine receptor A1 [6]),pEC50 (Adenosine receptor A1 [7]),further results
OC[C@H]1O[C@@H](n2cnc3c(NC4CCCC4)ncnc32)[C@H](O)[C@@H]1O [N6-CYCLOPENTYLADENOSINE],5.47,,,,,,,,
OC[C@H]1O[C@@H](n2cnc3c(NC4CCCCC4)nc(Cl)nc32)C[C@@H]1O,,5.59,6.30,61.7,1.59,0,,,
OC[C@H]1O[C@@H](n2cnc3c(NC4CCC4)cc(Cl)nc32)[C@H](O)[C@@H]1O,5.51,,,,,,7.39,,
OC[C@H]1O[C@@H](n2cnc3c(NC4CCCCCC4)nc(Cl)nc32)C[C@@H]1O,,5.96,6.43,30.7,0.752,0,,,
OC[C@H]1O[C@@H](n2cnc3c(NC4CCCCCC4)cc(Cl)nc32)[C@@H](O)C1O (some centres not stated),5.31,,,,,,6.61,5.18,
OC[C@H]1O[C@@H](n2cnc3c(NC4CCCC4)cc(Cl)nc32)[C@H](O)[C@@H]1O,5.55,,,,,,7.31,6.39,
OC[C@H]1O[C@@H](n2cnc3c(NC4CCCC4)ncnc32)C[C@@H]1O,,4.99,6.67,39.3,3.52,42.1,,5.24,
OC[C@H]1O[C@@H](n2cnc3c(NC4CCCCC4)ccnc32)[C@H](O)[C@@H]1O,5.29,,,,,,6.77,,
OC[C@H]1O[C@@H](n2cnc3c(NC4CCCCCCC4)ncnc32)C[C@@H]1O,,5.03,6.23,84.9,4.19,0,,,RHA [8]: 45.9%
OC[C@H]1O[C@@H](n2cnc3c(NC4CCC4)nc(Cl)nc32)[C@H](O)[C@@H]1O,6.34,,,,,,8.28,,
OC[C@H]1OC(n2cnc3c(NC4CCCCCCC4)cc(Cl)nc32)[C@H](O)[C@@H]1O (some centres not stated),4.70,,,,,,6.23,,
OC[C@H]1O[C@@H](n2cnc3c(NC4CCC4)ncnc32)[C@H](O)[C@@H]1O,6.38,,,,,,8.41,,
OC[C@H]1O[C@@H](n2cnc3c(NC4CC4)ncnc32)[C@H](O)[C@@H]1O,6.29,,,,,,7.57,6.15,
OC[C@H]1O[C@@H](n2cnc3c(NC4CCCCCC4)ncnc32)C[C@@H]1O,,4.69,6.11,124,7.41,24.9,,4.86,
OC[C@H]1O[C@@H](n2cnc3c(NC4CCCCCCC4)ncnc32)[C@H](O)[C@@H]1O,5.38,,,,,,7.27,,
OC[C@H]1O[C@@H](n2cnc3c(NC4CC4)nc(Cl)nc32)[C@H](O)[C@@H]1O,5.69,,,,,,,7.24,
OC[C@H]1OC(n2cnc3c(NC4CCCCCC4)nc(Cl)nc32)[C@H](O)[C@@H]1O (some centres not stated),5.96,,,,,,7.42,6.37,

SMILES,pKi (Adenosine receptor A2a),pKi (Adenosine receptor A1 [1]),pKi (Adenosine receptor A1 [2]),KH [3] [nM],KL [4] [µM],RIA [5],pKi (Adenosine receptor A1 [6]),pEC50 (Adenosine receptor A1 [7]),further results
OC[C@H]1O[C@@H](n2cnc3c(NC4CCC4)ccnc32)[C@H](O)[C@@H]1O,5.18,,,,,,6.96,,
OC[C@H]1O[C@@H](n2cnc3c(NC4CCCC4)ccnc32)[C@H](O)[C@@H]1O,5.00,,,,,,7.00,6.32,
OC[C@H]1O[C@@H](n2cnc3c(NC4CCCC4)nc(Cl)nc32)C[C@@H]1O,,5.88,6.81,18.5,0.8,8.3,,5.81,
OC[C@H]1O[C@@H](n2cnc3c(NC4CC4)cc(Cl)nc32)[C@H](O)[C@@H]1O,5.02,,,,,,6.82,6.15,
OC[C@H]1OC(n2cnc3c(NC4CCCCCC4)ccnc32)[C@H](O)[C@@H]1O (some centres not stated),5.04,,,,,,6.44,5.20,
OC[C@H]1O[C@@H](n2cnc3c(NC4CCCCC4)nc(Cl)nc32)[C@H](O)[C@@H]1O,6.23,,,,,,7.50,,
OC[C@H]1O[C@@H](n2cnc3c(NC4CCCCC4)cc(Cl)nc32)[C@H](O)[C@@H]1O,5.28,,,,,,6.57,,
OC[C@H]1O[C@@H](n2cnc3c(NC4CCCCC4)ncnc32)C[C@@H]1O,,4.78,6.39,92.5,7.33,40.1,,5.02,
OC[C@H]1O[C@@H](n2cnc3c(NC4CC4)ccnc32)[C@H](O)[C@@H]1O,4.79,,,,,,6.49,5.82,
OC[C@H]1OC(n2cnc3c(NC4CCCCCCC4)ccnc32)[C@H](O)[C@@H]1O (some centres not stated),4.86,,,,,,6.27,,
OC[C@H]1OC(n2cnc3c(NC4CCCCCCC4)nc(Cl)nc32)[C@H](O)[C@@H]1O (some centres not stated),5.37,,,,,,6.91,,
OC[C@H]1O[C@@H](n2cnc3c(NC4CCCCCC4)ncnc32)[C@H](O)[C@@H]1O,5.50,,,,,,7.71,7.06,
OC[C@H]1O[C@@H](n2cnc3c(NC4CCC4)ncnc32)C[C@@H]1O,,4.63,6.28,121,8.3,33.8,,5.29,
OC[C@H]1O[C@@H](n2cnc3c(NC4CC4)ncnc32)C[C@@H]1O,,,,,,0,,,
OC[C@H]1O[C@@H](n2cnc3c(NC4CCCCCCC4)nc(Cl)nc32)C[C@@H]1O,,5.85,6.18,23.6,1.02,0,,,RHA [8]: 14.5%
OC[C@H]1O[C@@H](n2cnc3c(NC4CC4)nc(Cl)nc32)C[C@@H]1O,,4.84,6.14,115,6.03,,,5.21,RIA [9]: 20.8%
OC[C@H]1O[C@@H](n2cnc3c(NC4CCC4)nc(Cl)nc32)C[C@@H]1O,,5.44,6.61,33.3,1.92,19.5,,5.43,
